Test results taken from patent US20150190479A1, “DELIVERY OF CHOLESTERYL ESTER TO STEROIDOGENIC TISSUES” (ALPHACORE PHARMA, LLC, priority 2010, published 2015).

B1: lecithin-cholesterol acyltransferase (protein, UniProt P04180 25-440, looked up)
Phosphatidylcholine-sterol …: FWLLNVLFPPHTTPKAELSNHTRPVILVPGCLGNQLEAKLDKPDVVNWMCYRKTEDFFTIWLDLNMFLPLGVDCWIDNTRVVYNRSSGLVSNAPGVQIRVPGFGKTYSVEYLDSSKLAGYLHTLVQNLVNNGYVRDETVRAAPYDWRLEPGQQEEYYRKLAGLVEEMHAAYGKPVFLIGHSLGCLHLLYFLLRQPQAWKDRFIDGFISLGAPWGGSIKPMLVLASGDNQGIPIMSSIKLKEEQRITTTSPWMFPSRMAWPEDHVFISTPSFNYTGRDFQRFFADLHFEEGWYMWLQSRDLLAGLPAPGVEVYCLYGVGLPTPRTYIYDHGFPYTDPVGVLYEDGDDTVATRSTELCGLWQGRQPQPVHLLPLHGIQHLNMVFSNLTLEHINAILLGAYRQGPPASPTASPEPPPPE
notes: enzyme

Columns and labels:
Assay type in all cases: in vivo, human
[1] = Adrenal function of a trauma patient under treatment; conditions: car accident victim; combination of 150 mg/day anacetrapib and LCAT injection (40 mg) every 5 days
From the text: The efficacy of a particular dose may be assessed by reference noting the change in HDL-C or improvement in certain physiologic parameters. Suitable physiologic parameters include, but are not limited to, improved cortisol response to ACTH, improved cortisol levels, change in circulating levels of steroids, e.g., corticosteroids, glucocorticoids, cortisol, testosterone, estrogen, decreased inflammatory cytokines, and improved liver function.
A victim of a car accident with abdominal injuries is brought to the hospital. Their HDL is 55 mg/dl. As HDL routinely falls after trauma, the physician prescribes 150 mg/day anacetrapib and an injection of LCAT (40 mg) every 5 days until the patient is fully stabilized. This treatment maintained the patient's HDL at >75 mg/dl throughout their recovery. Adrenal function was maintained.

[2] = Testosterone level and complaints of a patient with low testosterone; conditions: HDL-C 25 mg/dl, 150 mg/day
Protocol: A patient complains of lethargy and impotence. Their testosterone levels are low, and their HDL-C is 25 mg/dl. The physician prescribes ancetrapib at a dose of 150 mg/day. […] The patient's original complaints are absent.

[3] = HDL-C level of a patient after treatment (illustrative patient examples); conditions: patient admitted for major surgery, HDL-C 25 mg/dl at admission; LCAT 40 mg given 24 hours prior to surgery
From the text: Measurement of biomarker levels and parameters described above may be measured using methods that are well known in the art. For example, change in HDL-CE level is easily detected with standard clinical laboratory procedures. Likewise, measuring the adrenal response to ACTH is commonly used in patients with suspected adrenal insufficiency. One of ordinary skill in the art would understand the significance of the results and may choose to adjust the dose based on assessments such as those described above.
A patient is admitted into the hospital for major surgery. The patients HDL-C level is 25 mg/dl. […] The patient is administered a dose of LCAT of 40 mg 24 hours prior to surgery. The patient's HDL-C is measured prior to surgery, and is now above 50 mg/di, thus greatly reducing risk of infection and/or death following the procedure.
A burn victim is stabilized in the hospital with an HDL-C level of 12 mg/dl. […] The patient is infused with rHDL at a dose of 25 mg/kg over a period of 5 hours, raising the patient's HDL-C by 50 mg/dl. In order to maintain this level of HDL, the patient is administered a 60 mg dose of LCAT. Cortisol levels are monitored periodically to determine if the adrenal function is normalized. […]
A patient is beginning to enter septic shock. […] Cortisol levels are monitored to determine if the adrenal function is normalized. […]

| Molecule | adrenal function [1] | patient's original complaints (lethargy and impotence) [2] | testosterone level on recheck ([2]; rechecked 'For weeks later') | patient's HDL-C measured prior to surgery [3] |
| --- | --- | --- | --- | --- |
| COc1cc(F)c(C(C)C)cc1-c1ccc(C(F)(F)F)cc1CN1C(=O)O[C@H](c2cc(C(F)(F)F)cc(C(F)(F)F)c2)[C@@H]1C [anacetrapib] | maintained | absent | within normal levels |  |
| B1 | maintained |  |  | above 50 mg/di |
